Assay: xn = mol fraction of the nth substance listed
Details: Gas, Vibrating wire viscometry

C [methane] + CCC
x2 = 0.0548
Details | viscosity [mPa·s]
280.16 K, 610 kPa | 0.01039
280.16 K, 1550 kPa | 0.01051
280.17 K, 3150 kPa | 0.01083
280.17 K, 4970 kPa | 0.01143
280.18 K, 5880 kPa | 0.01179
280.2 K, 6560 kPa | 0.01211
280.21 K, 6970 kPa | 0.0123
298.18 K, 870 kPa | 0.01083
298.18 K, 1450 kPa | 0.01096
298.19 K, 4110 kPa | 0.01163
298.2 K, 2650 kPa | 0.01124
298.2 K, 5430 kPa | 0.01211
298.22 K, 6340 kPa | 0.01244
298.22 K, 6700 kPa | 0.01259

C [methane] + O=C=O
x1 = 0.57
Details | viscosity [mPa·s]
280.17 K, 6410 kPa | 0.01457
280.2 K, 5490 kPa | 0.01408
280.22 K, 4480 kPa | 0.01364
280.24 K, 3500 kPa | 0.01338
280.31 K, 2510 kPa | 0.0131
280.32 K, 1510 kPa | 0.01303
303.18 K, 5440 kPa | 0.01477
303.18 K, 6330 kPa | 0.01523
303.19 K, 3500 kPa | 0.01411
303.19 K, 4500 kPa | 0.0144
303.2 K, 1500 kPa | 0.01381
303.2 K, 2500 kPa | 0.01387
328.13 K, 6450 kPa | 0.01573
328.14 K, 3490 kPa | 0.01477
328.14 K, 4490 kPa | 0.01504
328.14 K, 5500 kPa | 0.01538
328.15 K, 2500 kPa | 0.01453
328.16 K, 1510 kPa | 0.01447
